Reference: ChEMBL document CHEMBL5316341, “The Development and Design Strategy of Leucine-Rich Repeat Kinase 2 Inhibitors: Promising Therapeutic Agents for Parkinson's Disease” (J Med Chem, 2023)

Legend:
[1] = biological target: T1, von Hippel-Lindau disease tumor suppressor/Leucine-rich repeat serine/threonine-protein kinase 2 (Mus musculus, UniProt P40338+Q5S006, R1441C); experiment: PROTAC activity at VHL/LRRK2 R1441C mutant in mouse embryonic fibroblast cells assessed as induction of LRRK2 degradation; type: cell-based, MEF
[2] = biological target: T1, von Hippel-Lindau disease tumor suppressor/Leucine-rich repeat serine/threonine-protein kinase 2; experiment: PROTAC activity at VHL/LRRK2 R1441C mutant in mouse bone marrow derived macrophages assessed as induction of LRRK2 degradation; type: cell-based, BMDM
[3] = biological target: T1, von Hippel-Lindau disease tumor suppressor/Leucine-rich repeat serine/threonine-protein kinase 2; experiment: PROTAC activity at VHL/LRRK2 R1441C mutant in mouse PBMC cells assessed as induction of LRRK2 degradation; type: cell-based
[4] = tested on: von Hippel-Lindau disease tumor suppressor/Leucine-rich repeat serine/threonine-protein kinase 2 (Mus musculus), Q5S006+P40338 [R1441C]; experiment: PROTAC activity at VHL/LRRK2 R1441C mutant in mouse embryonic fibroblast cells assessed as induction of LRRK2 degradation by measuring maximal efficacy relative to control; type: cell-based; conditions: MEF
[5] = tested on: von Hippel-Lindau disease tumor suppressor/Leucine-rich repeat serine/threonine-protein kinase 2 (Mus musculus), Q5S006+P40338 [R1441C]; experiment: PROTAC activity at VHL/LRRK2 R1441C mutant in mouse bone marrow derived macrophages assessed as induction of LRRK2 degradation by measuring maximal efficacy relative to control; type: cell-based; conditions: BMDM
[6] = tested on: von Hippel-Lindau disease tumor suppressor/Leucine-rich repeat serine/threonine-protein kinase 2 (Mus musculus), Q5S006+P40338 [R1441C]; experiment: PROTAC activity at VHL/LRRK2 R1441C mutant in mouse PBMC cells assessed as induction of LRRK2 degradation by measuring maximal efficacy relative to control; type: cell-based
[7] = tested on: von Hippel-Lindau disease tumor suppressor/Leucine-rich repeat serine/threonine-protein kinase 2 (Mus musculus), Q5S006+P40338 [R1441C]; experiment: PROTAC activity at VHL/LRRK2 R1441C mutant in mouse embryonic fibroblast cells assessed as induction of LRRK2 degradation by measuring half-life; type: cell-based; conditions: MEF
[8] = tested on: von Hippel-Lindau disease tumor suppressor/Leucine-rich repeat serine/threonine-protein kinase 2 (Mus musculus), Q5S006+P40338 [R1441C]; experiment: PROTAC activity at VHL/LRRK2 R1441C mutant in mouse bone marrow derived macrophages assessed as induction of LRRK2 degradation by measuring half-life; type: cell-based; conditions: BMDM
[9] = tested on: von Hippel-Lindau disease tumor suppressor/Leucine-rich repeat serine/threonine-protein kinase 2 (Mus musculus), Q5S006+P40338 [R1441C]; experiment: PROTAC activity at VHL/LRRK2 R1441C mutant in mouse PBMC cells assessed as induction of LRRK2 degradation by measuring half-life; type: cell-based
[10] = Oral bioavailability in mouse; type: ADME, organism-based; conditions: in vivo
[11] = biological target: Leucine-rich repeat serine/threonine-protein kinase 2 (Homo sapiens, UniProt Q5S007); experiment: Inhibition of wild-type LRRK2 (unknown origin) by adapta assay
[12] = biological target: Leucine-rich repeat serine/threonine-protein kinase 2 (Homo sapiens, UniProt Q5S007, G2019S); experiment: Inhibition of LRRK2 G2019S mutant (unknown origin) by adapta assay
[13] = biological target: T2, Protein cereblon/Leucine-rich repeat serine/threonine-protein kinase 2 (Homo sapiens, UniProt Q5S007+Q96SW2); experiment: PROTAC activity at CRBN/wild type HiBit tagged-LRRK in HEK293 cells assessed as LRRK2 degradation by Nano-Glo dual-luciferase reporter assay; type: cell-based
[14] = biological target: T2, Protein cereblon/Leucine-rich repeat serine/threonine-protein kinase 2; experiment: PROTAC activity at CRBN/wild type HiBit tagged-LRRK2 in HEK293 cells assessed as LRRK2 degradation by measuring maximum degradation by Nano-Glo dual-luciferase reporter assay relative to control; type: cell-based
[15] = biological target: Protein cereblon/Leucine-rich repeat serine/threonine-protein kinase 2 (Homo sapiens, UniProt Q5S007+Q96SW2, G2019S); experiment: PROTAC activity at CRBN/HiBit tagged-LRRK2 G2019S mutant in HEK293 cells assessed as LRRK2 degradation by Nano-Glo dual-luciferase reporter assay; type: cell-based
[16] = tested on: Protein cereblon/Leucine-rich repeat serine/threonine-protein kinase 2 (Homo sapiens), Q5S007+Q96SW2 [G2019S]; experiment: PROTAC activity at CRBN/LRRK2 G2019S mutant in HEK293 cells assessed as LRRK2 degradation by measuring maximum degradation by Nano-Glo dual-luciferase reporter assay relative to control; type: cell-based

T1 sequence (P40338 whole entry, stated change not applied): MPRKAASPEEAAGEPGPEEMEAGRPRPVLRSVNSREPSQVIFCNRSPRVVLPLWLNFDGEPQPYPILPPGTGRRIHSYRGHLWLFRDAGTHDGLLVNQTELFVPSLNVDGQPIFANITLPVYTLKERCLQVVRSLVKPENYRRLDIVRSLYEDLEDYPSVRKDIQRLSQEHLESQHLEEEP
T1 sequence (Q5S006 whole entry R1441C, stated change not applied): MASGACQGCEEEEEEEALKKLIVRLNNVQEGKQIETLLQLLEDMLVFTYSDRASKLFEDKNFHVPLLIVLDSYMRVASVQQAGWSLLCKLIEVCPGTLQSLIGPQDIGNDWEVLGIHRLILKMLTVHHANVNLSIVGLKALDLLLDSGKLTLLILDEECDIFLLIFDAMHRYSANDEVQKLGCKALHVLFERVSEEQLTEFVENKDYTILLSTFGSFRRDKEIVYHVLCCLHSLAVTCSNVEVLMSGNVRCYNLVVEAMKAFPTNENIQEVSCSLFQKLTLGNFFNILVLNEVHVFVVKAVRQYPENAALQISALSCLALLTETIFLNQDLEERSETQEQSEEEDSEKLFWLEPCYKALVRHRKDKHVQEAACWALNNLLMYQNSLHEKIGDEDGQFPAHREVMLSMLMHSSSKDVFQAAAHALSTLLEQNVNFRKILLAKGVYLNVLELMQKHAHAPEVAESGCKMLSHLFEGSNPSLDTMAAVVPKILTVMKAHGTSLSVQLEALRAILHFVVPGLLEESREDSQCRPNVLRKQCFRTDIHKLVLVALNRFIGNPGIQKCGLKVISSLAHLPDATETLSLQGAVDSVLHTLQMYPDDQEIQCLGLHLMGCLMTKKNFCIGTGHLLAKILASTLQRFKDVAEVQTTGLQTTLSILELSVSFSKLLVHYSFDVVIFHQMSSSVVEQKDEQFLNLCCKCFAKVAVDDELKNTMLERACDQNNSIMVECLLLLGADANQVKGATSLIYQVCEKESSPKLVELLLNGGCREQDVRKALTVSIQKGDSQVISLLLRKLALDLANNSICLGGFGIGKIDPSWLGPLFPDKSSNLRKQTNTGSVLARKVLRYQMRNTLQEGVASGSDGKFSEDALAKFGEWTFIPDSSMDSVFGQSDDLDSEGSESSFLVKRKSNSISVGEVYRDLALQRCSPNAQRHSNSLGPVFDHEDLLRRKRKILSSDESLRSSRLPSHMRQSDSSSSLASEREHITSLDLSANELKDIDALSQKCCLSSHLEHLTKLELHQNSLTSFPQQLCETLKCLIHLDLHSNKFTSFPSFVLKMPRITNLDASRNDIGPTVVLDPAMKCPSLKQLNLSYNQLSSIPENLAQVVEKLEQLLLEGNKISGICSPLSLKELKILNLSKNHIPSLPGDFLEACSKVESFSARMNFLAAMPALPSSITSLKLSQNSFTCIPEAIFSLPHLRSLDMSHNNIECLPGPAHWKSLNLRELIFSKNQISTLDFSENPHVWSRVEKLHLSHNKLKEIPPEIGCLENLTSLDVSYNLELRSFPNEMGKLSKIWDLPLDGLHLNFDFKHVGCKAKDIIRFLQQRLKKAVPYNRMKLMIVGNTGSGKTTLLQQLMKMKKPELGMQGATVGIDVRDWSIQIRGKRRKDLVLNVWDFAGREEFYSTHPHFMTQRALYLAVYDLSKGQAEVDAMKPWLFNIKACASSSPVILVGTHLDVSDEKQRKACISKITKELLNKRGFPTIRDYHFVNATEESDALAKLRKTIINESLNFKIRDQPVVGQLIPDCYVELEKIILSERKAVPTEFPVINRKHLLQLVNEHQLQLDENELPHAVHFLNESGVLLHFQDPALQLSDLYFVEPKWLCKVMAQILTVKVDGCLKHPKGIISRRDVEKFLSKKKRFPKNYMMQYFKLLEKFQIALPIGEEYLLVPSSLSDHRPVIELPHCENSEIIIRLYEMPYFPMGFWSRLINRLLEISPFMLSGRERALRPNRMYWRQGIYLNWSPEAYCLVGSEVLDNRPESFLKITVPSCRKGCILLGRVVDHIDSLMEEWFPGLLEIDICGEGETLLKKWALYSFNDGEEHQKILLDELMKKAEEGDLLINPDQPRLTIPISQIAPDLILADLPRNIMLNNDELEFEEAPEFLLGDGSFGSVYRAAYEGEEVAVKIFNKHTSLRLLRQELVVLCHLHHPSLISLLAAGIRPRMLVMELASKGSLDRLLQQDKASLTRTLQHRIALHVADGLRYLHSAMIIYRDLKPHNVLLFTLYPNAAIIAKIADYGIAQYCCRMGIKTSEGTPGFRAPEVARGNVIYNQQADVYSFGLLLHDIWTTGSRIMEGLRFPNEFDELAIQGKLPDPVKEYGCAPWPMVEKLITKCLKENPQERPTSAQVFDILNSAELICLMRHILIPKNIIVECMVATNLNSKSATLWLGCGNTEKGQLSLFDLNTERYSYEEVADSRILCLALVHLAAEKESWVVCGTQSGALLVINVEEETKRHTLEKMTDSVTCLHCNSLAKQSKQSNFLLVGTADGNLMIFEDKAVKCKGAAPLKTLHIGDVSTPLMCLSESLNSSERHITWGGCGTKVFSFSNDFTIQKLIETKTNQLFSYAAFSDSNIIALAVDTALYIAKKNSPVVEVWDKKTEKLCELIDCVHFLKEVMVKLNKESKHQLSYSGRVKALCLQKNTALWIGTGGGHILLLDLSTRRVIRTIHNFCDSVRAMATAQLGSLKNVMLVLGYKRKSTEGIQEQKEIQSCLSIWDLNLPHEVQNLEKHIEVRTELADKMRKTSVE

CNc1nc(Nc2ccc(C(=O)N3CCN(C[C@H]4CC[C@H](CSC(C)(C)[C@H](NC(=O)C5(F)CC5)C(=O)N5C[C@@H](O)C[C@@H]5C(=O)NCc5ccc(-c6scnc6C)cc5)CC4)CC3)cc2OC)ncc1Cl gave an EC50 [1] of 15 nM, an EC50 [2] of 15 nM and an EC50 [3] of 15 nM. It also gave an Emax [4] of 82%, an Emax [5] of 82% and an Emax [6] of 82%. For the same compound, the T1/2 [7] was 36 min, the T1/2 [8] was 36 min and the T1/2 [9] was 36 min. The bioavailability [10] was 15%.
With CC1(Oc2ccc3[nH]nc(-c4cc(N5CCN(CCOCCOCCOCCOc6ccc7c(c6)C(=O)N(C6CCC(=O)NC6=O)C7=O)CC5)ncn4)c3c2)CC1 (stereo unspecified) the IC50 [11] was 1.46 nM and the IC50 [12] was 0.98 nM.
Work on C[C@H]1CN(c2cc(-c3n[nH]c4ccc(OC5(C)CC5)cc34)ccn2)CCN1CCOCCOCCOCCOc1ccc2c(c1)C(=O)N(C1CCC(=O)NC1=O)C2=O (stereo partly specified) yielded an EC50 [13] of under 10 nM, an Emax [14] of over 70% and an EC50 [15] of under 10 nM. It also gave an Emax [16] of over 70%.
